In patent US20250092066A1, “SUBSTITUTED BICYCLIC HETEROCYCLES AS MALT-1 INHIBITORS” (AURIGENE ONCOLOGY LIMITED, priority 2022, published 2025):
pIC50: −log10 of the molar value.

Biological target: MALT-1 (Isoform1) (Homo sapiens (Human), UniProt Q9UDY8)
Assay: Biochemical fluorescent assay of MALT-1 (Isoform1) enzyme inhibition
Settings: recombinant MALT-1 (Isoform1); for inhibition at 1 µM: compound at 1 μM, read-out: Percent Inhibition (@ 1 μM); for pIC50: 50 μM AC-LRSR-MAC substrate, 240 min
Method: The potency of compounds to inhibit MALT-1 (Isoform1) enzyme was tested in a Fluorescent assay using recombinant MALT-1 (Isoform1, aa-840) generated in-house. The assay buffer was 50 mM HEPES (pH 7.5), 100 mM NaCl, 10 mM DTT, 1 mM EDTA, 0.9 M sodium citrate, 0.01% CHAPS. 1.5 nM of MALT-1 enzyme was incubated with various concentrations of test compounds ([…]) (1% DMSO) in the presence of buffer for 30 minutes at 30° C. The protease reaction was initiated by adding 50 μM of AC-LRSR-MAC (Peptide International, USA) substrate and incubated for 240 min. After 240 min incubation, fluorescence emission of the samples at 460 nm was measured at an excitation of 355 nm. The percent inhibition was calculated using the following formula: […]. IC50 values were determined by fitting the dose-response data to sigmoidal curve fitting equation using Graph pad prism software VS.

Chain of MALT-1 (Isoform1) (Q9UDY8 whole entry, canonical isoform): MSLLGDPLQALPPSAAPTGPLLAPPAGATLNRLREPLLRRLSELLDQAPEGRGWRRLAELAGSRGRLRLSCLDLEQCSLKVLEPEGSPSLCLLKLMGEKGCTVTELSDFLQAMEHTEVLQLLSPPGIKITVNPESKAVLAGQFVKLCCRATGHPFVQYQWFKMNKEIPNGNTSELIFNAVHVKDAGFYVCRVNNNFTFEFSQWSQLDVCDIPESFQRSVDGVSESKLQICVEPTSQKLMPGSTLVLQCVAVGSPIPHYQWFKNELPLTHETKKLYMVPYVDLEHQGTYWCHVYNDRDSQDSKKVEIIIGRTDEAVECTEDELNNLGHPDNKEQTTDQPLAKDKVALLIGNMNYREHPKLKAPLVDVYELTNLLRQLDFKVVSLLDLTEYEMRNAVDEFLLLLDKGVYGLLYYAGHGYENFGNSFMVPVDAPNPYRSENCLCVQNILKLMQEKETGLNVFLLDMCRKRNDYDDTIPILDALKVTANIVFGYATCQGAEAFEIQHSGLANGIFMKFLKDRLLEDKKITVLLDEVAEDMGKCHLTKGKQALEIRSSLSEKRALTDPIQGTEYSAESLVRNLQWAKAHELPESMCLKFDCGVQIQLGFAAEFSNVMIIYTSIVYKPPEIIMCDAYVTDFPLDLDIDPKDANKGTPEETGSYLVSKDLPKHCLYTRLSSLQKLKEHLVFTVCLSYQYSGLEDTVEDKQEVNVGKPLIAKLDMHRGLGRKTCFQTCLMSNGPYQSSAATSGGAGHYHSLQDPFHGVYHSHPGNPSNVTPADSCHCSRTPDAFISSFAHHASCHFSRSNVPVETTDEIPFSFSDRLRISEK

## CO[C@@H](C)c1c(NC(=O)Nc2cc(F)c3ncnn3c2)cnc2cc(C)nn12 [Example 28]
  inhibition at 1 µM: 84%
  pIC50: < 6.60

## CO[C@@H](C)c1c(NC(=O)Nc2cc(F)c3nc(CN(C)C)nn3c2)cnc2cc(Cl)nn12 [Example 29]
  inhibition at 1 µM: 83%
  pIC50: 6.60 to 7.29

## CO[C@@H](C)c1c(NC(=O)Nc2cc(Cl)c3nc(Cl)nn3c2)cnc2cc(Cl)nn12 [Example 30]
  inhibition at 1 µM: 96%
  pIC50: > 7.30

## COC(C)c1c(NC(=O)Nc2cc(Cl)c3ncnn3c2)cnc(C)c1Br (stereo not drawn) [Example 34b, 1-(5-bromo-4-(1-methoxyethyl)-6-methylpyridin-3-yl)-3-(8-chloro-[1,2,4]triazolo[1,5-a]pyridin-6-yl)urea]
  inhibition at 1 µM: 33%

## COC(C)c1c(NC(=O)Nc2cc(F)c3nc(C)nn3c2)cnc(C)c1Br (stereo not drawn) [Example 36]
  inhibition at 1 µM: 69%
  pIC50: < 6.60

## COC(C)c1c(NC(=O)Nc2cc(F)c3nc(C)nn3c2)cnc(C)c1Cl (stereo not drawn) [Example 37]
  inhibition at 1 µM: 48%
  pIC50: < 6.60

## Cc1nc2c(C3CC3)c(NC(=O)Nc3cc(Cl)c4ncnn4c3)cnc2s1 [Example 38, 1-(8-chloro-[1,2,4]triazolo[1,5-a]pyridin-6-yl)-3-(7-cyclopropyl-2-methylthiazolo[5,4b]pyridin-6-yl)urea]
  inhibition at 1 µM: 62%
  pIC50: < 6.60

## COC(C)c1c(NC(=O)Nc2cc(F)c3nc(C)nn3c2)cnc2sc(C)nc12 (stereo not drawn) [Example 39, 1-(8-fluoro-2-methyl-[1,2,4]triazolo[1,5-a]pyridin-6-yl)-3-(7-(1-methoxyethyl)-2-methylthiazolo[5,4-b]pyridin-6-yl)urea]
  inhibition at 1 µM: 77%
  pIC50: < 6.60

## CO[C@@H](C)c1c(NC(=O)Nc2cc(Cl)c3nccn3c2)cnc2cc(Cl)nn12 [Example 40]
  inhibition at 1 µM: 96%
  pIC50: 6.60 to 7.29

## CO[C@@H](C)c1c(NC(=O)Nc2cc(F)c3nc(C)cn3c2)cnc2cc(Cl)nn12 [Example 41]
  inhibition at 1 µM: 69%
  pIC50: < 6.60

## CO[C@@H](C)c1c(NC(=O)Nc2cc(F)c3nc(C)c(C)n3c2)cnc2cc(Cl)nn12 [Example 42]
  inhibition at 1 µM: 79%
  pIC50: 6.60 to 7.29

## CO[C@@H](C)c1c(NC(=O)Nc2cc(F)c3nccn3c2)cnc2cc(Cl)nn12 [Example 43]
  inhibition at 1 µM: 86%
  pIC50: 6.60 to 7.29

## CO[C@@H](C)c1c(NC(=O)Nc2cc(F)c3ncc(C)n3c2)cnc2cc(Cl)nn12 [Example 44]
  inhibition at 1 µM: 90%
  pIC50: 6.60 to 7.29

## CO[C@@H](C)c1c(NC(=O)Nc2cc(F)c3ncnn3c2)cnc2cc(C(F)F)nn12 [Example 45]
  inhibition at 1 µM: 78%
  pIC50: 6.60 to 7.29

## CO[C@@H](C)c1c(NC(=O)Nc2cc(F)c3nc(C)nn3c2)cnc2cc(C3CC3)nn12 [Example 46]
  inhibition at 1 µM: 40%
  pIC50: > 7.30

## CO[C@@H](C)c1c(NC(=O)Nc2cc(F)c3nc(C)nn3c2)cnc2cc(C#N)nn12 [Example 47]
  inhibition at 1 µM: 54%
  pIC50: > 7.30

## CO[C@@H](C)c1c(NC(=O)Nc2cc(F)c3nc(C(=O)N4CCCC4)nn3c2)cnc2cc(Cl)nn12 [Example 48]
  inhibition at 1 µM: 86%
  pIC50: 6.60 to 7.29
